Source: US20020009713A1, “Methods for identifying modulators of neuronal growth” (priority 2000, published 2002)

How the values were obtained:
rat sympathetic neurons = test: MTT survival assay of cultured sympathetic neurons; assay type: cell-based; conditions: cultured in NGF or NGF+KCl
Protocol: Neurons were plated at low density (approximately one ganglion/well) in Nunclon™ 4-well culture dishes (Gibco BRL, Burlington, Ontario, Canada), coated with either rat tail collagen or poly-D-lysine and laminin (both from Collaborative Biomedical Products, Bedford, Mass.). Culture medium was UltraCulture (BioWhittaker, Walkersville, Md.), supplemented with 3% rat serum (Harlan Bioproducts, Madison, Wis.), 2 mM glutamine, 100 U/ml penicillin, 100 μg/ml streptomycin (all from BioWhittaker), and for the first two days, 7 μM cytosine arabinoside (Sigma-Aldrich Canada Ltd., Oakville, Ontario, Canada).
NGF-dependent neurons were selected by culturing sympathetic neurons for five days in the presence of 50 ng/ml NGF. Neurons were washed three times for one hour each in neurotrophin-free media, and were then fed with media containing 10 ng/ml NGF alone, or various concentrations of NGF plus either 100 ng/ml BDNF, 10 μg/ml αBDNF, or a 1:100 dilution of antiserum containing the p75^NTR antibody, REX (Weskamp and Reichardt, Neuron 6: 649-663, 1991). Each condition was repeated in triplicate, and analysis of survival was performed 48 hours later by using nonradioactive cell proliferation (MTT) assays (Celltitre 96; Promega; Belliveau et al., J. Cell Biol. 136:375-388, 1997). Specifically, 50 μl of the MTT reagent was added to 500 μl media in each well, and incubated for two hours at 37° C. After aspiration of the MTT containing media, 100 μl of a 0.065N HCl/isopropanol mixture was added to each well to lyse the cells, and colorimetric analysis was performed using an ELISA reader. For rat sympathetic neurons, 10 ng/ml NGF represents 100% survival, therefore all other values were considered to be relative to 10 ng/ml NGF. For mouse neurons, 7.5 ng/ml NGF represents 100% survival, and was thus considered to be the 100% survival threshold for neuritogenesis experiments.

[1] = test system: postnatal sympathetic neurons (SCG neurons); test: Campenot chamber neurite growth assay; assay type: cell-based, rat; conditions: 50 μM U0126 with 10 ng/ml NGF
Protocol: We have devised a method for quantitatively assaying neurite growth. In this assay, the cell bodies of neurons are plated in Campenot chamber, a compartmentalized dish that has scratches or grooves in the matrix. The compartments are physically separated from each other by, for example, a Teflon® divider. The cells are placed in the central compartment. The scratches allow neurites to extend from the neuronal cell bodies and into adjacent compartments (FIG. 10A).
Neurites were induced to grow into HGF supplemented side compartments, and then visualized by staining against tubulin. Adenoviral-mediated expression of DN MEK in SCG neurons decreased neuritogenesis by 39% (FIGS. 10B, 10C).
We cultured postnatal sympathetic neurons in Campenot chambers. […] Addition of 50 μM U0126 in conjunction with 10 ng/ml NGF abrogates this growth while having no effects on cell survival (FIG. 15).

[2] = test system: sympathetic neurons exogenously expressing TrkB; conditions: U0126 added with 25 ng/ml BDNF, dose-dependent
Protocol: We transduced postnatal sympathetic neurons with an adenovirus encoding TrkB. In Campenot dishes, these neurons grow processes into compartments containing 25 ng/ml BDNF.

sympathetic neurons = test: Quantitative dot-blot of MAP2 association with microtubules and microtubule stability; assay type: cell-based, rat; conditions: neurons maintained in NGF or NGF+KCl
Protocol: FIG. 22 is a schematic illustration showing immuno-dot blot analysis of MAP2 association and tubulin dynamics in SCG neurons. […]
Microtubules were isolated from cultured sympathetic neurons, and the relative amount of MAP2 present per microgram tubulin was determined using quantitative dot-blot analysis. […] Depolarization enhances MAP2 levels and CamKII phosphorylation in sympathetic neurons. We performed western blot analysis of sympathetic neurons treated with 10 ng/ml NGF, 50 mM KCl, or NGF+KCl. Lysates containing equal amounts of protein were separated by SDS-PAGE, transferred to nitrocellulose, and then probed for MAP2, phosphorylated-CamKII, phosphorylated-ERKs, or total ERK protein. KCl increases the amount of MAP2 present in sympathetic neurons, and enhances CamKII phosphorylation.
Inhibition of either CamKII or MEK is sufficient to inhibit activitydependent dendrite formation. Immunocytochemical analysis for MAP2 on sympathetic neurons cultured in the presence of NGF+KCl with or without 10 um KN62, 75 um PD98059, 100 nM H-89 or 10 uM forskolin. […] In this study, microtubule stability was determined in sympathetic neurons maintained in NGF or NGF+KCl, and treated with selective pharmacological inhibitors.

N#CC(=C(/N)Sc1ccccc1N)/C(C#N)=C(\N)Sc1ccccc1N [U0126]
survival of sympathetic neurons (MTT) (rat sympathetic neurons): None of these compounds perturbs
NGF-induced neuronal growth into side compartment [1]: abrogates
cell survival [1]: no effects
TrkB-mediated neuronal growth [2]: dramatically reduced
KCl-induced increase in microtubule stability (sympathetic neurons): completely inhibit
